Molecular target: Cyclin-dependent kinase 2 (Homo sapiens, UniProt P24941)

Compound `O=C(NC1=NNC2=CC=CC21)C1CC1` (stereo unspecified) has an IC50 of 5 nM.

Reference: ChEMBL document CHEMBL1156672, “Selectivity criterion for pyrazolo[3,4-b]pyrid[az]ine derivatives as GSK-3 inhibitors: CoMFA and molecular docking studies” (Eur J Med Chem, 2008)
